What was measured:
Aurora kinase B [1] = target: T1, Aurora kinase B (Homo sapiens, UniProt Q96GD4); test: Inhibition of Aurora B (unknown origin) using HLRRASLG substrate at 1 uM
MV4-11 [2] = test: Cytotoxicity against human MV4-11 cells assessed as cell viability at 1 uM after 48 hrs by MTT assay; format: functional; conditions: MV4-11, 48 h, read-out: Activity
[3] = Cytotoxicity against human HL60 cells assessed as cell viability at 1 uM after 48 hrs by MTT assay; format: functional; conditions: HL-60, 48 h, read-out: Activity
THP-1 [4] = test: Cytotoxicity against human THP1 cells assessed as cell viability after 48 hrs by MTT assay; format: functional, cell-based
[5] = Cytotoxicity against human HL60 cells assessed as cell viability after 48 hrs by MTT assay; format: functional, cell-based; conditions: HL-60, 48 h
MOLM-13 [6] = test: Cytotoxicity against human MOLM13 cells assessed as cell viability after 48 hrs by MTT assay; format: functional, cell-based; conditions: MOLM-13, 48 h
MOLM-13 [7] = test: Cytotoxicity against human MOLM13 cells assessed as cell viability at 1 uM after 48 hrs by MTT assay; format: functional; conditions: MOLM-13, 48 h, read-out: Activity
[8] = target: Receptor-type tyrosine-protein kinase FLT3 (Homo sapiens) (UniProt P36888); test: Inhibition of FLT3 (unknown origin) using EAIYAAPFAKKK substrate at 1 uM
MV4-11 [9] = test: Cytotoxicity against human MV4-11 cells assessed as cell viability after 48 hrs by MTT assay; format: functional, cell-based
THP-1 [10] = test: Cytotoxicity against human THP1 cells assessed as cell viability at 1 uM after 48 hrs by MTT assay; format: functional; conditions: THP-1, 48 h, read-out: Activity
Aurora kinase B [11] = target: T1, Aurora kinase B; test: Inhibition of Aurora B (unknown origin) using HLRRASLG substrate
[12] = target: T2, Receptor-type tyrosine-protein kinase FLT3 (Homo sapiens, UniProt P36888); test: Inhibition of FLT3 (unknown origin) using EAIYAAPFAKKK substrate
T2 sequence (P36888 whole entry): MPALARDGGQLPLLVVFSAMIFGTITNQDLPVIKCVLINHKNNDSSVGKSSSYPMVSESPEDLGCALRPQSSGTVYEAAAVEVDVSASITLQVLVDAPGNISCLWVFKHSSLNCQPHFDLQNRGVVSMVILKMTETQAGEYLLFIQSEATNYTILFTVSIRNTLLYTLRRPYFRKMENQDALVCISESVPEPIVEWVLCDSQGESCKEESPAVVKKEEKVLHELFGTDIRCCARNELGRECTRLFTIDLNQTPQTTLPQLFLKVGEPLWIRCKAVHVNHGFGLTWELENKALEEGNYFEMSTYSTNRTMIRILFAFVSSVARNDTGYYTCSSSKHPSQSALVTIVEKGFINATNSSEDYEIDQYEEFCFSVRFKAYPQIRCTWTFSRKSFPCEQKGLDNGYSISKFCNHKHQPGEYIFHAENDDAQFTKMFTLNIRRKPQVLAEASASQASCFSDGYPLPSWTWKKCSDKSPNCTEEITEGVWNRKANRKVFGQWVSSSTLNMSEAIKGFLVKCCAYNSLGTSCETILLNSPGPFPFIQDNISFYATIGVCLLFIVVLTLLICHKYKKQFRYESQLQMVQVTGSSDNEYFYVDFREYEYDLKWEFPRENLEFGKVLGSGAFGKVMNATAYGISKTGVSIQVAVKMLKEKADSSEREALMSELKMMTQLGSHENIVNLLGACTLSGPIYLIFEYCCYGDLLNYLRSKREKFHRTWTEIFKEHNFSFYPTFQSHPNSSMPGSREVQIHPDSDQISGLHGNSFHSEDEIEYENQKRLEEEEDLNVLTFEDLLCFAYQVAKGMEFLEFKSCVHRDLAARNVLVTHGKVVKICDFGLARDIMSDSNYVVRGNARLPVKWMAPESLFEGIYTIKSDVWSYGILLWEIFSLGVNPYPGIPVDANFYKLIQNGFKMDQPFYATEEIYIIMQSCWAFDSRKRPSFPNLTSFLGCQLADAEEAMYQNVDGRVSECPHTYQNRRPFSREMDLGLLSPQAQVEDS

[13] = Permeability coefficient of the compound at pH 7.4 by PAMPA-GIT assay; format: ADME; conditions: read-out: Peff
[14] = Ratio of solubility in PBS to solubility in DMSO; format: physicochemical

T1 sequence (Q96GD4 whole entry): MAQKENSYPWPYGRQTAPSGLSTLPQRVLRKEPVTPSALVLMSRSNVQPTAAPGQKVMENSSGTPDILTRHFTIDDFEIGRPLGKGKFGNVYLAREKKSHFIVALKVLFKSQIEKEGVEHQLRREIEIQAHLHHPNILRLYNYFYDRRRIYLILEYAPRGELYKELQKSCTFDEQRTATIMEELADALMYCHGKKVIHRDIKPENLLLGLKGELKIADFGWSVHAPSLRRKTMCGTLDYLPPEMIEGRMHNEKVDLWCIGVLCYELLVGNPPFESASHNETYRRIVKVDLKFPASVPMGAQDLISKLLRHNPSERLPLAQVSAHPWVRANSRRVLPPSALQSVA

| inhibition (Aurora kinase B [1]) [%] | inhibition [8] [%] | IC50 (Aurora kinase B [11]) [nM] | IC50 [12] [nM] | Papp [13] [×10⁻⁶ cm/s] | SMILES | viability at 1 µM (MV4-11 [2]) [%] | viability at 1 µM [3] [%] | IC50 (THP-1 [4]; Homo sapiens, THP-1, 48 h) [nM] | IC50 [5] [nM] | IC50 (MOLM-13 [6]) [nM] | viability at 1 µM (MOLM-13 [7]) [%] | IC50 (MV4-11 [9]; Homo sapiens, MV4-11, 48 h) [nM] | viability at 1 µM (THP-1 [10]) [%] | Ratio [14] | IC50 (THP-1 [4]; thp-1) [nM] | IC50 (MV4-11 [9]; mv4-11) [nM] |
| --- | --- | --- | --- | --- | --- | --- | --- | --- | --- | --- | --- | --- | --- | --- | --- | --- |
| 7 | 4 | – | – | – | COc1ccc(C(=O)NC(=O)Nc2ccc3c(c2)NC(=O)/C3=C/c2ccncc2)cc1 | 72 | 95 | > 500 | > 500 | > 500 | 65 | > 500 | 96 | – | – | – |
| 63 | – | – | > 1000 | – | COc1ccc(C(=O)NC(=O)Nc2ccc3c(c2)NC(=O)/C3=C/c2ccc(O)cc2)cc1 | – | – | > 500 | 485 | 351 | – | 377 | 54 | – | – | – |
| 29 | – | – | > 1000 | – | COc1ccc(C(=O)NC(=O)Nc2ccc3c(c2)NC(=O)/C3=C/c2ccccn2)cc1 | 60 | 80 | > 500 | > 500 | > 500 | 62 | > 500 | 85 | – | – | – |
| 73 | 21 | – | – | – | COc1ccc(C(=O)NC(=O)Nc2ccc3c(c2)NC(=O)/C3=C/c2cccc(C(=O)O)c2)cc1 | 57 | 59 | > 500 | > 500 | 291 | 53 | > 500 | 71 | – | – | – |
| 59 | 40 | – | – | – | COc1ccc(C(=O)NC(=O)Nc2ccc3c(c2)NC(=O)/C3=C/c2ccc(N(C)C)cc2)cc1 | – | – | 88.9 | 50.4 | 42.5 | – | 45.5 | – | – | – | – |
| 39 | – | – | – | – | COc1ccc(C(=O)NC(=O)Nc2ccc3c(c2)/C(=C/c2ccc[nH]2)C(=O)N3)cc1 | – | – | 373 | 301 | 222 | – | 256 | – | – | – | – |
| 61 | 34 | – | – | – | COc1ccc(C(=O)NC(=O)Nc2ccc3c(c2)NC(=O)/C3=C/c2ccccc2)cc1 | 64 | 64 | > 500 | > 500 | > 500 | 73 | > 500 | 76 | – | – | – |

Continued, molecule first:

| SMILES | inhibition (Aurora kinase B [1]) [%] | inhibition [8] [%] | IC50 (Aurora kinase B [11]) [nM] | IC50 [12] [nM] | Papp [13] [×10⁻⁶ cm/s] | viability at 1 µM (MV4-11 [2]) [%] | viability at 1 µM [3] [%] | IC50 (THP-1 [4]; Homo sapiens, THP-1, 48 h) [nM] | IC50 [5] [nM] | IC50 (MOLM-13 [6]) [nM] | viability at 1 µM (MOLM-13 [7]) [%] | IC50 (MV4-11 [9]; Homo sapiens, MV4-11, 48 h) [nM] | viability at 1 µM (THP-1 [10]) [%] | Ratio [14] | IC50 (THP-1 [4]; thp-1) [nM] | IC50 (MV4-11 [9]; mv4-11) [nM] |
| --- | --- | --- | --- | --- | --- | --- | --- | --- | --- | --- | --- | --- | --- | --- | --- | --- |
| CCOC(=O)c1c(C)[nH]c(/C=C2\C(=O)Nc3cc(NC(=O)NC(=O)c4ccc(OC)cc4F)ccc32)c1C | – | – | > 1000 | > 1000 | – | – | – | 74 | 13 | 9.8 | – | 11.3 | – | – | – | – |
| O=C(NC(=O)c1ccccc1)Nc1ccc2c(c1)NC(=O)/C2=C\c1ccc[nH]1 | – | – | – | > 1000 | – | – | – | 293 | 250 | 238 | – | 240 | – | – | – | – |
| COc1ccc(C(=O)NC(=O)Nc2cc3c(cc2F)/C(=C/c2[nH]c(C)c(C(=O)O)c2C)C(=O)N3)cc1 | – | – | – | – | 2.46 | – | – | 81.2 | 32.2 | 25.3 | – | 34.6 | – | 0.58 | – | – |
| COc1ccc(C(=O)NC(=O)Nc2ccc3c(c2)NC(=O)/C3=C\c2[nH]c(C)c(C(=O)NCCN3CCCC3)c2C)c(F)c1.CS(=O)(=O)O | – | – | – | – | – | – | – | – | – | – | – | – | – | 0.97 | 32.2 | 2 |
| CCOC(=O)CCc1c(C)[nH]c(/C=C2\C(=O)Nc3cc(NC(=O)NC(=O)c4ccc(OC)cc4F)ccc32)c1C | – | – | – | > 1000 | – | – | – | 53.9 | 29.9 | 10.9 | – | 15.1 | – | – | – | – |
| COc1ccc(C(=O)NC(=O)Nc2cccc3c2/C(=C/c2ccc[nH]2)C(=O)N3)cc1 | 11 | – | – | – | – | – | – | 356 | 334 | 303 | – | 357 | – | – | – | – |
